Article PMC6085299 (Nature Communications, 2018)
pKd: −log10 of the molar value.

How the values were obtained:
Pin1 [1] = target: Pin1 (Homo sapiens, UniProt Q13526, M130I); test: PPIase assay (Supplementary Fig. 2e); format: biochemical
Pin1 [2] = target: T1, Pin1 (Homo sapiens, UniProt Q13526); test: biotin-ATO pulldown with immunoblot, dose-dependent, competed by ATO; format: binding
T1 construct: recombinant Pin1

| Compound | PPIase assay (Supplementary Fig. 2e) (Pin1 [1]) | pKd (Pin1 [2]) |
| --- | --- | --- |
| O=[As]O[As]=O (centres unmarked) [ATO, Arsenic trioxide] | ATO dose-dependently inhibited the PPIase activity of Pin1 M130I, but not Pin1 M130V mutant | – |
| biotin-ATO | – | 6.62 |
